# Test results taken from patent publication US20020076722A1, “Antibiotic hypersusceptibility mutations in bacteria” (priority 2000, published 2002).
# How the values were obtained:
# LIT1 strain = experiment: Release of DNA and growth of the LIT1 lysis reporter strain with translational inhibitors; type: cell-based, Acinetobacter; settings: LIT1 clone; for DNA released in presence of antibiotic versus absence, normalized per ml of culture: 2 h (chloramphenicol) or 1.5 h (erythromycin, tetracycline)
# Procedure: The LIT1 cells were inoculated in LB at OD600 0.05 and grown at 37° C. to OD600 0.2 at which time antibiotics were added at indicated concentrations. Two (chloramphenicol) or 1.5 (erythromycin and tetracycline) hours later the OD600 of the cultures were measured, cells were spun down and the released DNA was purified as described above. The amounts of DNA in μg normalized per milliliter of culture was determined fluorimetrically by adding an aliquot of the isolated DNA to the solution of ethidium bromide (0.5 μg/ml) and measuring the fluorescence at λex 540 and λem 580 nm (FIG. 7). The values obtained were compared with the calibration curve for known amounts of DNA.
# [1] = system: Acinetobacter library cells; experiment: Inhibition of growth of Acinetobacter library cells by ampicillin in liquid culture; type: cell-based, Acinetobacter sp. strain BD413
# Procedure: Clones hypersusceptible to the β-lactam drug ampicillin, an antibiotic that is well known to cause bacterial lysis, were selected. As compared to E. coli, Acinetobacter is remarkably resistant to ampicillin.
# To purify the DNA released, bacterial cells from the insertional library of Acinetobacter were diluted in LB medium to OD600 0.025 and allowed to grow at 37° C. to OD600 0.1. Ampicillin was added to 5 ml aliquots of the culture at a variety of concentrations. After two hours, the cells were removed by centrifugation. DNA released into the medium in response to incubation with ampicillin was purified using a variation of the Wizard DNA purification protocols of Promega. Specifically, three grams of guanidine-HCl was dissolved in 5 ml of the culture medium and 1 ml of the slurry of DNA-binding silica resin (Promega Wizard DNA purification resin) was added. After a 5 min incubation with shaking, the resin was collected in a mini-column by passing the slurry through it with a syringe. […]
# Cells of a frozen insertional library of Acinetobacter were diluted in LB medium to OD600 0.025 and allowed to grow at 37° C. to OD600 0.1, at which point ampicillin was added to 5 ml aliquots of the culture at the indicated concentrations. Two hours later the density of the cultures was measured, cells were removed by centrifugation and the DNA released into the medium was purified. […]
# [2] = system: Acinetobacter library cells and SDR-selected clones; experiment: Growth of clones replica-plated on LB-agar plates with different concentrations of ampicillin; type: cell-based, Acinetobacter sp.
# Procedure: Each individual clone was inoculated into a well of a 96-well plate. When the cultures reached the density of approx. OD600 0.2-0.5, they were transferred by using a 6×8-pin replicator onto LB-agar plates containing kanamycin (25 μg/ml) and different concentrations of ampicillin. Plates were digitally scanned after 24 hr of incubation at 37° C. (FIG. 3). The spots indicated as Library are identical cultures from the original library and serve here as controls.
# The computer scans of different plates were combined in a single set. This study has been conducted essentially as described in Example 2.
# E. Coli = settings: bulgecin as known inhibitor of Slt; cited from earlier work
# [3] = system: alkM model strain (lysis cassette under alkM promoter); experiment: Induction of DNA release by hexadecane in the alkM model strain; type: cell-based, Acinetobacter
# Procedure: (§1) FIG. 6—Gene organization in the alkM model strain and induction of DNA release before and after SDR selection. Transformants 1 and 2 and the derivative of the transformant 1 after four cycles of SDR selection were grown to OD600 0.3 and a drop of hexadecane was added to 5 ml of the culture. After overnight incubation (induction of the alkM expression occurs only in stationary phase (Ratajczak et al., J. Bacteriol. 180(22):5822-7, 1998)) the released DNA was purified from the medium as described in the text.
# (§2) A model strain of Acinetobacter with the lysis cassette of λ inserted under the control of a antibiotic-inducible promoter was constructed and determined to release DNA in response to the antibiotic inducer. A promoter of the alkM gene of Acinetobacter, which encodes an enzyme involved in degradation of hydrocarbons and whose expression is activated dramatically by hexadecane, was chosen (Ratajczak et al., 1998). The promoter-less lysis cassette was PCR-amplified from the DNA of λ. The 5′-end of the gene of S-protein, which is the limiting factor in lysis (Young, 1992), was modified by an appropriately designed PCR primer. In particular, the alternative start codon from which an inhibitory variant of S is translated has been eliminated by mutation. […]
# wild-type Acinetobacter = experiment: DNA release by hexadecane in wild-type Acinetobacter; type: cell-based
# Procedure: as §1, §2
molecule,measurement,setting,value
CN(C)[C@@H]1C(O)=C(C(N)=O)C(=O)[C@@]2(O)C(O)=C3C(=O)c4c(O)cccc4[C@@](C)(O)[C@H]3C[C@@H]12 [tetracycline],increase of released DNA normalized per number of cells,LIT1 strain,~35 fold
O=C(N[C@H](CO)[C@H](O)c1ccc([N+](=O)[O-])cc1)C(Cl)Cl [chloramphenicol],increase of released DNA normalized per number of cells,LIT1 strain,approximately ten-fold
same,"DNA released in presence of antibiotic versus absence, normalized per ml of culture",LIT1 strain,four times more
CC[C@H]1OC(=O)[C@H](C)[C@@H](O[C@H]2C[C@@](C)(OC)[C@@H](O)[C@H](C)O2)[C@H](C)[C@@H](O[C@@H]2O[C@H](C)C[C@H](N(C)C)[C@H]2O)[C@](C)(O)C[C@@H](C)C(=O)[C@H](C)[C@@H](O)[C@]1(C)O [erythromycin],increase of released DNA normalized per number of cells,LIT1 strain,approximately ten-fold
same,"DNA released in presence of antibiotic versus absence, normalized per ml of culture",LIT1 strain,four-fold
CC1(C)S[C@@H]2[C@H](NC(=O)[C@H](N)c3ccccc3)C(=O)N2[C@H]1C(=O)O [ampicillin],growth inhibition at the concentrations used for SDR selection,"[1]; 1, 3 and 9 μg/ml ampicillin, little lysis",only moderate growth inhibition
same,ampicillin concentration at which slow growth was still observed,"[1]; liquid culture, LB, 37° C., two hours",729 µg/mL
same,ampicillin concentration on plates at which library cells were still growing,"[2]; original library cells, LB-agar, 24 hr",32 µg/mL
same,ampicillin concentration at which clones could not grow,[2]; seventeen of 30 tested clones selected with 3 μg/ml of ampicillin,1 µg/mL
bulgecin,effect on sensitivity to the β-lactam antibiotic cefoxitin,E. Coli,increase the sensitivity
CCCCCCCCCCCCCCCC [hexadecane],effect on optical density of the culture,[3]; model strain before SDR selection,did not cause significant reduction
same,effect on amount of DNA released,"[3]; transformants, drop of hexadecane in 5 ml culture, overnight",significant increase
same,effect on release of DNA,wild-type Acinetobacter,no effect
